Results on two compounds are retold here after patent US10493118B2, “Triterpenoid obtainable from hedera helix for treatment of neurodegenerative diseases” (Macau University of Science and Technology, priority 2016, dated 2019).

Series [1] has as its system myc-tagged-A53T-α-syn. In kind it is cell-based. As to conditions: PC-12 cells after 1 μg/ml Dox induction; hederagenin 40 or 60 μM, α-hederin 12 or 24 μM. An excerpt:
Protein extraction and Western blots: Cells were harvested by RIPA lysis buffer (Cell Signaling Technologies, Beverly, Mass., USA), and with the final protein concentrations measured by using Bradford reagent (Bio-Rad, Hercules, Calif., USA). After electrophoresis for protein band separation, proteins were transferred to the nitrocellulose membrane which was blocked with 5% non-fat dried milk immediately after protein transfer. Corresponding primary antibodies, followed by the addition of HRP-conjugated secondary antibodies, were incubated with the protein membrane with constant shaking. Visualization of protein band pattern was performed by using the ECL Western Blotting Detection Reagents (Invitrogen, Paisley, Scotland). Band intensities were quantified by using the software, ImageJ (ImageJ 1.46r; National Institutes of Health, Bethesda, Md., USA).

The subject of series [2] is PC-12 cells. As to the kind of experiment: MTT cytotoxicity assay in PC-12 cells. It counts as cell-based. The note with it: for IC50: MTT assay for 48 h. As for the experimental part: (§1) Cytotoxicity Assays: Cell viability was measured by using the MTT method (3-[4,5-dimethylthiazol-2-yl]-2,5-diphenyl tetrazolium bromide) as described previously (Wu, A. G. et al. Int J Mol Sci 2013, 14:22618-22641). Absorbance (OD) of cell samples was obtained by spectrophotometer at 570 nm. The percentage of cell viability was calculated by using the formula: cell viability (%)=cells numbertreated/cells numberDMSO control×100. All MTT data were calculated from three independent experiments.
as §1, with “experiments. Cell viability was also measured by flow cytometry using the Annexin V staining kit (BD Biosciences, San Jose, Calif., USA).” for “experiments.”
Cytotoxicity Assays and Flow Cytometry: Cell viability was measured by using the MTT method (3-[4,5-dimethylthiazol-2-yl]-2,5-diphenyl tetrazolium bromide) as described previously (Wu, A. G. et al. Int J Mol Sci 2013, 14:22618-22641). Absorbance (OD) of cell samples was obtained by spectrophotometer at 570 nm. The percentage of cell viability was calculated by using the formula: cell viability (%)=cells numbertreated/cells numberDMSO control×100. All MTT data were calculated from three independent experiments. Cell viability was also measured by flow cytometry using the Annexin V staining kit (BD Biosciences, San Jose, Calif., USA). In brief, PC-12 cells treated with hederagenin and α-hederin were analyzed by multiparametric flow cytometry using FITC-Annexin V and/or propidium iodide staining (BD Biosciences, San Jose, Calif., USA) by following manufacturer's instructions. Flow cytometry was then carried out using a FACSCalibur flow cytometer (BD Biosciences). […]

Series [3] is described as follows: UHPLC/MS/MS measurement of hederagenin and α-hederin level in mice brain tissues. In kind it is in vivo. As for the experimental part: Whole mice brains were collected and weighted after sacrificed. Each brain tissue was put into 500 μl of NaCl solution and ultra-sonicated for 40 s to give the whole tissue homogenate. Each tube of homogenate was set to a final volume of 800 μl. […] The supernatant was collected and remaining precipitate was re-extracted with 200 μl of methanol. The collected supernatant was then combined and dried by using dry nitrogen blowing instrument. The residue was reconstituted with 200 μl of 30% acetonitrile, and then 10 μl of the aliquot was injected into the LC-MS/MS system (Su, F. L. et al., Chromatographia 2009, 69:207-213). […] The measurement of dopamine (DA), hederagenin and α-hederin level in mice brain tissues: Internal standard (IS, DHBA), DA, hederagenin and α-hederin level in the mouse brain, were quantified using UHPLC/MS/MS system which includes Agilent 1290 Infinity UHPLC, and Agilent 6460 Triple Quadrupole, equipped with an electrospray ionization interface used to generate positive ions for the determination of DA; negative ion mode for the measurement of hederagenin and α-hederin in mouse brains. The compounds in plasma samples were analyzed by using the Agilent Zorbax Eclipse Plus C-18 column with a particle size of 1.8 μm (flow rate: 0.35 mL/min). […] Data were analyzed by using Agilent MassHunter Workstation software B.01.03. […]

The IC50 is the concentration at which inhibition is half-maximal.

`CC1(C)CC[C@]2(C(=O)O)CC[C@]3(C)C(=CC[C@@H]4[C@@]5(C)CC[C@H](O)[C@@](C)(CO)[C@@H]5CC[C@]43C)[C@@H]2C1` [hederagenin]: the “clearance of overexpressed mutant A53T α-syn” value in series [1] is listed as “facilitate the clearance of the overexpressed mutant α-”. In series [2] (Rattus norvegicus), this compound registered an IC50 of over 100 µM. In addition, in series [3] (C57BL/6, mouse, in vivo, po, 80 mg/kg), the “level detected in the brain tissue” value was 3.39 nM.

For `C[C@@H]1O[C@@H](O[C@H]2[C@H](O[C@H]3CC[C@@]4(C)[C@@H](CC[C@]5(C)[C@@H]4CC=C4[C@@H]6CC(C)(C)CC[C@]6(C(=O)O)CC[C@]45C)[C@]3(C)CO)OC[C@H](O)[C@@H]2O)[C@H](O)[C@H](O)[C@H]1O` [α-hederin], the “clearance of overexpressed mutant A53T α-syn” value in series [1] was “facilitate the clearance of the overexpressed mutant α-”. In addition, 26.5 µM corresponded to half-maximal inhibition in series [2] (IC50). The “cytotoxicity at most effective concentration” value in series [2] (hederagenin 80 μM, α-hederin 24 μM) is on record as “lack of obvious cytotoxicity”. Further, in series [3] (mice with 80 mg/kg HH-EF′ treatment, oral), the “level detected in the brain tissue” value is given as 2.98 nM.
